Patent US5952189A (priority 1997, dated 1999)

System: anti-Fas-induced hepatocyte apoptosis
Test: Anti-Fas induced hepatotoxicity in mice (serum transaminases)
Assay type: in vivo
Protocol: It has been previously shown that injection of mice with antibodies directed against the Fas antigen causes hepatocyte apoptosis and death due to liver failure (Ogasawara et al. (1993) Nature 364:806-809). Therefore, the effects of administration of DK120 to mice injected with antibodies directed against the murine Fas antigen were tested.
^1 Mice (2 for each treatment) were injected ip +/- DK120 30 min prio
to antiFas antibodies. Twelve h later serum transaminase levels were […]

In the case of `C[C@H](NC(=O)OCc1ccccc1)C(=O)N[C@@H](C)C(=O)NC(Cc1ccccc1)B(O)O` (stereo partly drawn) [DK120, carbobenzoxy-ala-ala-borophe], the AST (DK120 5 mg/kg ip 30 min prior to anti-Fas, 12 h, without DK120 81) is reported as 121 U/ml, the ALT (DK120 5 mg/kg ip 30 min prior to anti-Fas, 12 h, without DK120 513) is reported as 746 U/ml and the “Effect on anti-Fas induced elevation of serum transaminases” value (mouse, in vivo) is reported as “did not counteract the elevation of serum transaminases induced by anti-Fas antibodies”.
